The source made the active and inactive calls.
How the values were obtained:
[1] = target: Phospholipase D1 (Homo sapiens, UniProt Q13393); test: PLD1 purified enzyme concentration response. [Related pubchem assays (depositor defined):AID588854]; assay type: functional
[2] = target: T1, Phospholipase D2 (Homo sapiens, UniProt O14939); test: cellular phospholipase D2 inhibition IC50 – cell-based, dose response (AID 602147); assay type: functional;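 also: cellular assay in HEK293 cells overexpressing GFP-tagged PLD2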
[3] = target: T1, Phospholipase D2; test: PLD2 purified enzyme concentration response. [Related pubchem assays (depositor defined):AID588854]; assay type: functional
[4] = test system: HEK293; test: HEK293T cell viability loss, resazurin readout – resazurin fluorescence, cytotoxicity control for NF-kB activator project, SAR follow-up (AID 493251); assay type: functional, cell-based; settings: Homo sapiens
[5] = test system: Jurkat; test: SAR Analysis of small molecule inhibitors of T-cell specific antigen receptor-induced NF-kB activation in a Jurkat cell line using a luminescence assay - Set 2. [Related pubchem assays (depositor defined):AID435003, AID435012, AID465]; assay type: functional, cell-based; settings: Homo sapiens
[6] = test system: HEK293; test: SAR Analysis of small molecule inhibitors of T-cell specific antigen receptor-induced NF-kB activation in a HEK-293T cell line using a luminescence assay - Set 2. [Related pubchem assays (depositor defined):AID435003, AID435012, AID489026]; assay type: functional, cell-based; settings: Homo sapiens
[7] = target: Dual specificity protein phosphatase 3 (Homo sapiens, UniProt P51452); test: SAR VHR1 Fluorescent Assay for In Vitro dose response studies Set 3. [Related pubchem assays (depositor defined):AID1654, AID1661, AID1878]; assay type: functional
[8] = SNU-C1 cell viability reduction, dose response, CellTiter-Glo luminescence (AID 1117323); assay type: functional, cell-based
[9] = target: T2, Oxysterols receptor LXR-beta (Homo sapiens, UniProt P55055); assay type: functional, cell-based;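 also: agonist activity at LXR measured by a cell-based luminescence readout across a dose range, run as a counterscreen for daf-12 agonists; HEK293 cells with Gal4-LXR fusion and GAL4-driven luciferase reporter; potency for activation of Gal4-LXR reporter so compounds are agonists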
T2 sequence (P55055 whole entry): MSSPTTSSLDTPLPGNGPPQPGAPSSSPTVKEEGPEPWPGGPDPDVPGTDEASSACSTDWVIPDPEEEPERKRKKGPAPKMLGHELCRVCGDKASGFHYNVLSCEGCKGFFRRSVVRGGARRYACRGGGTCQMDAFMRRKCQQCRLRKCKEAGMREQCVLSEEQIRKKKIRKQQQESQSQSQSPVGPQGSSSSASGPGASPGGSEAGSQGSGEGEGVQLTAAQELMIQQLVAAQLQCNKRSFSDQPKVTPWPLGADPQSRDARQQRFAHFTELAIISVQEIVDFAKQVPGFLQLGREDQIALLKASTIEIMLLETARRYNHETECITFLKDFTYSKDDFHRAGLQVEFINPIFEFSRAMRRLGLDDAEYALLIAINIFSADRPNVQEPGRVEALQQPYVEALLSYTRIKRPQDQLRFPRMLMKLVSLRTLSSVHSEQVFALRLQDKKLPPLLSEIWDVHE

[10] = cells; assay type: functional, cell-based
[11] = HCT116 cell viability decrease, GSK3B pretreatment – CellTiter-Glo, IC50, dose response (AID 1117339); assay type: functional; settings: HCT-116
[12] = RKO cell viability reduction, dose response, CellTiter-Glo luminescence (AID 1117322); assay type: functional
[13] = Reduced DLD-1 viability, concentration-response, CellTiter-Glo luminescence (AID 1117352); assay type: functional
[14] = CellTiter-Glo luminescence survival assay, SW480 colon tumor line, concentration-response curve, half-maximal inhibitory concentration (AID 1117338); assay type: functional
[15] = cells; assay type: functional, cell-based; remark: listed apart in the source
[16] = cytotoxicity toward Colo320 cells – cell-based, CellTiter-Glo luminescence, IC50, dose response (AID 1117334); assay type: functional; settings: COLO 320
[17] = cytotoxicity toward HT-29 cells – cell-based, CellTiter-Glo luminescence, IC50, dose response (AID 1117330); assay type: functional
[18] = cytotoxicity toward HCT116 cells – cell-based, CellTiter-Glo luminescence, IC50, dose response (AID 1117332); assay type: functional; settings: HCT-116
[19] = target: Nuclear receptor subfamily 0 group B member 1 (Homo sapiens, UniProt P51843); test: Luminescence-based cell-based high throughput dose response assay for inhibitors of the orphan nuclear receptor subfamily 0, group B, member 1 (DAX1; NR0B1). [Related pubchem assays (depositor defined):AID504766, AID504790]; assay type: functional
[20] = test system: HEK293; test: cells; assay type: functional, cell-based; settings: Homo sapiens

T1 sequence (O14939 whole entry): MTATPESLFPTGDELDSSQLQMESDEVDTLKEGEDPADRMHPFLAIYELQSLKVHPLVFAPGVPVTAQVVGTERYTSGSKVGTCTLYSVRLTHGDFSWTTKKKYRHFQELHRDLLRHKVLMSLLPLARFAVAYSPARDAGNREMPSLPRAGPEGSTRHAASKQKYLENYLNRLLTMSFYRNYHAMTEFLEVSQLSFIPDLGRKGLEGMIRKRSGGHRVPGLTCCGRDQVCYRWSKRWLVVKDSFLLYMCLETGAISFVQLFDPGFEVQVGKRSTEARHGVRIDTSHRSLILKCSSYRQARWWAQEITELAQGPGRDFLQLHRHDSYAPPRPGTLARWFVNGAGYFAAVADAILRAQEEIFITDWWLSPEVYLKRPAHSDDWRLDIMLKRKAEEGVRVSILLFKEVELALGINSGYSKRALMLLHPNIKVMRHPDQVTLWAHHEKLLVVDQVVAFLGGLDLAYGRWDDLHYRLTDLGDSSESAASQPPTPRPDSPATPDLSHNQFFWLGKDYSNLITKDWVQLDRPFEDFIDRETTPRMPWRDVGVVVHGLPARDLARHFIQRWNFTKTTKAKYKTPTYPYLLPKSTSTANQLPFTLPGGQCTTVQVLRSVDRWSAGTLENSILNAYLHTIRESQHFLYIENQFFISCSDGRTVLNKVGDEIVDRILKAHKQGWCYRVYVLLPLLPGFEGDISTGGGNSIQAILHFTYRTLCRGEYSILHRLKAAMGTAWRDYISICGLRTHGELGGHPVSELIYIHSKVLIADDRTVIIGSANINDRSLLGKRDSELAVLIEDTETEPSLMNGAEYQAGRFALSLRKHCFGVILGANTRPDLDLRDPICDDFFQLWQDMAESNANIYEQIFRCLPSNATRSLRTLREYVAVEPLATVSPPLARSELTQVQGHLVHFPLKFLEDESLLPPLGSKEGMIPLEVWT
Chain of Dual specificity protein phosphatase 3 (P51452 whole entry): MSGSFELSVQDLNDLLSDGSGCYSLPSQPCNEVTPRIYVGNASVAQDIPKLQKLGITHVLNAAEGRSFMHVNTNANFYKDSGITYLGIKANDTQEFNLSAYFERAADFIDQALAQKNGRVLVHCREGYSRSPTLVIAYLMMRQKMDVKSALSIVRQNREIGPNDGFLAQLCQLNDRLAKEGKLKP
Chain of Phospholipase D1 (Q13393 whole entry): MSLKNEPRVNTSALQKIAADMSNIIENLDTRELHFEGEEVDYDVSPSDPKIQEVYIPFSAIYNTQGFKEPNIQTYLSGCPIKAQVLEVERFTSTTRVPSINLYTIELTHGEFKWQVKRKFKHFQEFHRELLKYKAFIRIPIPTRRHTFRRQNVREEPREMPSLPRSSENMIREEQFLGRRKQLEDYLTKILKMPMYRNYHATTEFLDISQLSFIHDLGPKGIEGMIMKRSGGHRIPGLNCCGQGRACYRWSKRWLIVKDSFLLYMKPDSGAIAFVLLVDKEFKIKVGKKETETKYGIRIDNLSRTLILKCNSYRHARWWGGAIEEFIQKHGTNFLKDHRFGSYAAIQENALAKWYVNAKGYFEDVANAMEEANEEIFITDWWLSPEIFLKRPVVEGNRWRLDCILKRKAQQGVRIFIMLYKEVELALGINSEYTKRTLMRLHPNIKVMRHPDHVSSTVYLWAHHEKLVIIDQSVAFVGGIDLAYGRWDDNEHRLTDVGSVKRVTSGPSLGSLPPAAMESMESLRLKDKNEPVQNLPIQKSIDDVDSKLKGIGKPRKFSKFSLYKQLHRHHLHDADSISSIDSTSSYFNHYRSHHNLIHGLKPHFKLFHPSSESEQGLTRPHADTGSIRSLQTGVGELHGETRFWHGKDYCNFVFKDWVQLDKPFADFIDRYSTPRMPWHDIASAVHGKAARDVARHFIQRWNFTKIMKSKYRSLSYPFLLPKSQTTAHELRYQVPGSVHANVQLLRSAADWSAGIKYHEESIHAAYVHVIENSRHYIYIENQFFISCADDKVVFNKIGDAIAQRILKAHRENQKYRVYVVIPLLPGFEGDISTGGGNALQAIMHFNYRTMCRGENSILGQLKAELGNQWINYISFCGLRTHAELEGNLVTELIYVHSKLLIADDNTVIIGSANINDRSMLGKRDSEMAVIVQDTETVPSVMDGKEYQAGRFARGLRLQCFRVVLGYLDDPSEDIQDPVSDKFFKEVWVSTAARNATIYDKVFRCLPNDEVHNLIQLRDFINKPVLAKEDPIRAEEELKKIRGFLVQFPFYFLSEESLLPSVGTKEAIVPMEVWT
Chain of Nuclear receptor subfamily 0 group B member 1 (P51843 whole entry): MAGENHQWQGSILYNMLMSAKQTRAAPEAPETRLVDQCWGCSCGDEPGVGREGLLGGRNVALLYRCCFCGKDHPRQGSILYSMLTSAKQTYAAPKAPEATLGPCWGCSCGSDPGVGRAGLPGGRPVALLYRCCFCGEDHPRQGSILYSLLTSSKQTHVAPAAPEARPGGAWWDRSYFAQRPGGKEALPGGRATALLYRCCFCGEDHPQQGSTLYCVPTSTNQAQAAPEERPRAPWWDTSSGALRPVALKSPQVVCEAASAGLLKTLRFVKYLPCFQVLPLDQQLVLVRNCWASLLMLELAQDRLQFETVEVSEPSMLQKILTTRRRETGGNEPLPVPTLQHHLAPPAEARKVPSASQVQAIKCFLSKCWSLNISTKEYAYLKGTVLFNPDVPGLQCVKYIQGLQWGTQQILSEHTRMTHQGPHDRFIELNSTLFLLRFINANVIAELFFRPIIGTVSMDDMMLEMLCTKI

## C[C@@H](CN1CCC2(CC1)C(=O)NCN2c1ccccc1)NC(=O)c1ccc(F)c(F)c1
[1]
  IC50: 2.15 µM (active)
[2]
  IC50: 0.21 µM (active)
[3]
  IC50: 2.22 µM (active)

## CC(C)c1ccc(C(NC(=O)C2CCCCC2)c2cc([N+](=O)[O-])c3cccnc3c2O)cc1 (stereo not given)
[4]
  IC50: 3.96 µM (active)
[5]
  IC50: 76.4 µM (inactive)
[6]
  IC50: 11.6 µM (active)

## COc1ccc(C(=O)Nc2nc3c(OC)ccc(C)c3s2)cc1
[7]
  IC50: 48.7 µM (active)

## Nc1ccc(C(=O)Nc2ccccc2N)cc1 [DINALINE]
[8]
  IC50: > 20 µM (inactive)
[9]
  EC50: > 67.6 µM (inactive)
[10]
  EC50: 18.7 µM (active)
[11]
  IC50: 12.9 µM (inactive)
[12]
  IC50: > 20 µM (inactive)
[13]
  IC50: > 20 µM (inactive)
[14]
  IC50: > 20 µM (inactive)
[15]
  EC50: > 350 µM (not active)
[16]
  IC50: > 20 µM (inactive)
[17]
  IC50: > 20 µM (inactive)
[18]
  IC50: > 6.67 µM (inactive)
[19]
  IC50: 19.8 µM (inactive)
[20]
  IC50: 0.255 µM (active)

From ChEMBL document CHEMBL1201862, “PubChem BioAssay data set” (2004)
